From ChEMBL document CHEMBL1821572, “Discovery of a novel series of selective HCN1 blockers” (Bioorg Med Chem Lett, 2011) come the findings set out here.

SMILES strings stand for the structures.

The species entered for one data set is Homo sapiens. Kind of data set: Selectivity for human HCN1 over human HCN4.
Data set [1] can be described thus: Half life in human liver microsomes. Format: ADME, Microsome.
Another data set is filed under the species Mus musculus. Kind of data set: Toxicity in C57BL/6 mouse assessed as induction of bradycardia after 50 mins by ECG study. To be noted: in vivo. Format: organism-based.
The target in data set [2] is T1, Potassium/sodium hyperpolarization-activated cyclic nucleotide-gated channel 4 (Homo sapiens, UniProt Q9Y3Q4).
T1 sequence (Q9Y3Q4 whole entry): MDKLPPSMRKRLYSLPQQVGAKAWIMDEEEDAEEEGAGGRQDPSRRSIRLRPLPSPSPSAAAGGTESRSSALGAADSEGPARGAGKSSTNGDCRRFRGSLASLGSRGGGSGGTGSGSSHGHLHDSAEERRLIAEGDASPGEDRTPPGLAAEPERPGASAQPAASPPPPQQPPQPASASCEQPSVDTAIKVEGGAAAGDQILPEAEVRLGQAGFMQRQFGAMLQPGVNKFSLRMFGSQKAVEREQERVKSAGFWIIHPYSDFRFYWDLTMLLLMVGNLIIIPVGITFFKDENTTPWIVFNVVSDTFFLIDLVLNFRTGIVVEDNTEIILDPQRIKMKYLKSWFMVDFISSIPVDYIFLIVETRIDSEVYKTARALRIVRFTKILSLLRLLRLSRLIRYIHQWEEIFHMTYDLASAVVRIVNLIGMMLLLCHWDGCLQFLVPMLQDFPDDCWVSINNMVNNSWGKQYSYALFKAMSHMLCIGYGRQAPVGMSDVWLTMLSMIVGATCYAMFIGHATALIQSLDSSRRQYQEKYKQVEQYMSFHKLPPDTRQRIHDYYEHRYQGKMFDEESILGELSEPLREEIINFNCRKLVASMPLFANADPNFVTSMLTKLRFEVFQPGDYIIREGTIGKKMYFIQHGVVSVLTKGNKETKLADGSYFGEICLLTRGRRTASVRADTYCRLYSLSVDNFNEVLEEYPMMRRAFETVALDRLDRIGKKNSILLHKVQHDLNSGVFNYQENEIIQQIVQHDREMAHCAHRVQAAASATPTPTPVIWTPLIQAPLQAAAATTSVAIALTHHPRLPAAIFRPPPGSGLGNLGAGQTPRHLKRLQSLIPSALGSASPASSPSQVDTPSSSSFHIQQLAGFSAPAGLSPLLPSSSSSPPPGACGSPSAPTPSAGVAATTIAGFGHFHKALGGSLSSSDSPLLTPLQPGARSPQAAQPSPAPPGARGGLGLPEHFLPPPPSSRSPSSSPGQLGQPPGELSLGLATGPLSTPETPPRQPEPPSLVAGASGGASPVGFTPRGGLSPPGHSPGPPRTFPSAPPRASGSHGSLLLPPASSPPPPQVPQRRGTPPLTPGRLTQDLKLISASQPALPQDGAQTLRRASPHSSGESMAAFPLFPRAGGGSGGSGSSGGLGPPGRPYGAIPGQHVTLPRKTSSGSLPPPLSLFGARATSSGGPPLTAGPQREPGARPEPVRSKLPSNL
In words: Inhibition of human HCN4 heterologously expressed in HEK-293 cells after 30 mins by VIPR assay. Format: cell-based, HEK293.

The target in data set [3] is T2, Potassium/sodium hyperpolarization-activated cyclic nucleotide-gated channel 3 (Homo sapiens, UniProt Q9P1Z3).
T2 sequence (Q9P1Z3 whole entry): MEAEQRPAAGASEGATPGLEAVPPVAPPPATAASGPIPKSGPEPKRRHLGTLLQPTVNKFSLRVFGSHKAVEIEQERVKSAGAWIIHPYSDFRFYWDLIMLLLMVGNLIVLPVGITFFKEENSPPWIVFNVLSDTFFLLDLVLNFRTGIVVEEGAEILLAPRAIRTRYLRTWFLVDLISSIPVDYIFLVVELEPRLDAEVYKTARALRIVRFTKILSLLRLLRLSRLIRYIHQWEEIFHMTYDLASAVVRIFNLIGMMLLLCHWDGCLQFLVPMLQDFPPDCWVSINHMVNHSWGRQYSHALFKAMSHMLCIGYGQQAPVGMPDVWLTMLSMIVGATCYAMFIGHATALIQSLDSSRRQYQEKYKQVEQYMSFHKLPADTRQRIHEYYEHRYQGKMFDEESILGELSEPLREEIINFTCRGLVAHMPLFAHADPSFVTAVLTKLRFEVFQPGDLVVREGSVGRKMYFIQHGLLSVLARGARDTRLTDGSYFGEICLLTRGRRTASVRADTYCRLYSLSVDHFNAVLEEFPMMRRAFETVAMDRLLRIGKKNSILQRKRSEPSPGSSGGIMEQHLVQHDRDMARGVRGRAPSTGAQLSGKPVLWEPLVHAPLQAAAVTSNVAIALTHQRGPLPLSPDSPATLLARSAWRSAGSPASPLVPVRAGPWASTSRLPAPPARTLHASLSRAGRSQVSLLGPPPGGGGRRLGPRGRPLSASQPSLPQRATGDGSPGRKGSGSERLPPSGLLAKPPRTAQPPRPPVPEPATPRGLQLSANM
In words: Inhibition of human HCN3 heterologously expressed in HEK-293 cells after 30 mins by VIPR assay. It counts as cell-based, HEK293.

In data set [4] the target is T3, Potassium/sodium hyperpolarization-activated cyclic nucleotide-gated channel 1 (Homo sapiens, UniProt O60741).
T3 sequence (O60741 whole entry): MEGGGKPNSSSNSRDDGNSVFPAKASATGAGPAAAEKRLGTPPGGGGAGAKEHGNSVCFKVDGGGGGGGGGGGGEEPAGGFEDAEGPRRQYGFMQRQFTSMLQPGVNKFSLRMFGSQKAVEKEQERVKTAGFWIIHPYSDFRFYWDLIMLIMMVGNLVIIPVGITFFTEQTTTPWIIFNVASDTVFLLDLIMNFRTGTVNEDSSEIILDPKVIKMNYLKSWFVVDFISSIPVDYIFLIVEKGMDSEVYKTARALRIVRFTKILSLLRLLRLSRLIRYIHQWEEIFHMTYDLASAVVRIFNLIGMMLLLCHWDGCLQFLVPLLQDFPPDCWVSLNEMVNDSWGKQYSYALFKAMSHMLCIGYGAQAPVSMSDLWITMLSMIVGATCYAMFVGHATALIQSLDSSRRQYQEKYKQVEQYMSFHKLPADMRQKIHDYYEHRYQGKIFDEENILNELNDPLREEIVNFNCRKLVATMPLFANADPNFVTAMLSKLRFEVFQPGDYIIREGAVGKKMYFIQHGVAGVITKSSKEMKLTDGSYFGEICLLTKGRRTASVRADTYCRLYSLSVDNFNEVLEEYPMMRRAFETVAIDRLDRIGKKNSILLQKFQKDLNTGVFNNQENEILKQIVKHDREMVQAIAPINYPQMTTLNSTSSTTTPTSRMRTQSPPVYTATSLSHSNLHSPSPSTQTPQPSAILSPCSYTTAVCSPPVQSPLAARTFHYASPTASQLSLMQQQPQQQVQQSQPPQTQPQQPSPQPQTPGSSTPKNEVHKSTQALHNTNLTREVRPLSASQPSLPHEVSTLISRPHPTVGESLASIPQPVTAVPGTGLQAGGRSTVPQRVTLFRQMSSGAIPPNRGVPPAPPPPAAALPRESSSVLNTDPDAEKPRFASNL
In words: Inhibition of human HCN1 heterologously expressed in HEK-293 cells after 30 mins by VIPR assay. Format: cell-based, HEK293.

Consider `CCOc1ccccc1C(=O)NCC1(N2CCNCC2)CCCCC1`, for which, in the data set filed under Homo sapiens, the Selectivity ratio was found to be 10. The half-life in data set [1] was 3.92 h. Also, in the data set listed under Mus musculus, the ED20 came to 25 mg/kg. Besides, the IC50 in data set [2] was 3.98 µM; in data set [3], 3.16 µM; in data set [4], 0.398 µM.
